Source: ChEMBL document CHEMBL1138508, “Design, synthesis, and pharmacological effects of a cyclization-activated steroid prodrug for colon targeting in inflammatory bowel disease” (J Med Chem, 2009)
Activity calls are given as the source filed them. The calls are words filed in the database; no cut-off is given here.

Key:
[1] = Stability at pH 8 to 9 after 24 hrs; format: physicochemical; conditions: buffer, pH 8, 24 h
Mus musculus [2] = assay: Inhibition of dextran sodium sulfate-induced ulcerative colitis in BALB/c mouse assessed as decrease in colon shortening at 5 mg/kg, po twice daily for 6 days relative to control; format: functional, organism-based; parameters: dose 5 mg/kg
[3] = Stability at pH 3.4 to 7.4 after 24 hrs; format: physicochemical; conditions: buffer, pH 3.4, 24 h
[4] = Apparent permeability from basolateral to apical side in human Caco-2 cells by HPLC; format: ADME, cell-based
Mus musculus [5] = assay: Inhibition of dextran sodium sulfate-induced ulcerative colitis in BALB/c mouse assessed as decrease in disease activity index at 5 mg/kg, po twice daily for 6 days relative to control; format: functional, organism-based; parameters: dose 5 mg/kg
Mus musculus [6] = assay: Toxicity in dextran sodium sulfate treated BALB/c mouse ulcerative colitis model assessed as reduction in thymus weight to body weight ratio at 5 mg/kg, po administered twice daily for 6 days relative to control; format: organism-based; parameters: dose 5 mg/kg, route oral; conditions: in vivo, 144 h
[7] = Stability in human gastric juice after 24 hrs; format: ADME, tissue-based
Mus musculus [8] = assay: Inhibition of dextran sodium sulfate-induced ulcerative colitis in BALB/c mouse assessed as decrease in body weight loss at 5 mg/kg, po twice daily for 6 days relative to control; format: functional, organism-based; parameters: dose 5 mg/kg
[9] = Chemical stability assessed as half life at neutrality pH; format: physicochemical
[10] = Stability assessed as half life at pH 8 by HPLC; format: physicochemical; conditions: buffer
[11] = Stability assessed as half life at pH 4 by HPLC; format: physicochemical; conditions: buffer
[12] = Stability assessed as half life at pH 2.6 by HPLC; format: physicochemical; conditions: buffer
[13] = Stability assessed as half life at pH 7.4 by HPLC; format: physicochemical; conditions: buffer
Mus musculus [14] = assay: Inhibition of dextran sodium sulfate-induced ulcerative colitis in po dosed BALB/c mouse assessed as decrease in colon shortening administered twice daily for 6 days relative to control; format: functional, organism-based
Mus musculus [15] = assay: Inhibition of dextran sodium sulfate-induced ulcerative colitis in po dosed BALB/c mouse assessed as decrease in body weight loss administered twice daily for 6 days relative to control; format: functional, organism-based
Mus musculus [16] = assay: Toxicity in dextran sodium sulfate treated po dosed BALB/c mouse ulcerative colitis model assessed as reduction in thymus weight to body weight ratio administered twice daily for 6 days relative to control; format: organism-based; conditions: in vivo, 144 h
Mus musculus [17] = assay: Inhibition of dextran sodium sulfate-induced ulcerative colitis in po dosed BALB/c mouse assessed as decrease in disease activity index administered twice daily for 6 days relative to control; format: functional, organism-based

C[C@]12C=CC(=O)C=C1CC[C@@H]1[C@@H]2[C@@H](O)C[C@@]2(C)[C@H]1CC[C@]2(O)C(=O)COC(=O)CCc1ccccc1/N=N/c1ccc(O)c(C(=O)O)c1
Stability [1]: Unstable | Activity (Mus musculus [2]): Active | Stability [3]: Stable | Papp B→A [4]: 140 nm/s | Activity (Mus musculus [5]): Active | Activity (Mus musculus [6]): Non-toxic | Stability [7]: Stable | Activity (Mus musculus [8]): Active

COC(=O)CCc1ccccc1N
half-life [9]: 57 min

C[C@]12CCC(=O)C=C1CC[C@@H]1[C@@H]2[C@@H](O)C[C@@]2(C)[C@H]1CC[C@]2(O)C(=O)COC(=O)CCc1ccccc1N
half-life [10]: 44 min | half-life [11]: 30 min | half-life [12]: 54 min | half-life [13]: 73 min

C[C@]12C=CC(=O)C=C1CC[C@@H]1[C@@H]2[C@@H](O)C[C@@]2(C)[C@H]1CC[C@]2(O)C(=O)CO [PREDNISOLONE]
Activity (Mus musculus [14]): Active | Activity (Mus musculus [15]): Active | Activity (Mus musculus [16]): Toxic | Activity (Mus musculus [17]): Active

C[C@]12C=CC(=O)C=C1CC[C@@H]1[C@@H]2[C@@H](O)C[C@@]2(C)[C@H]1CC[C@]2(O)C(=O)COC(=O)Cc1ccccc1/N=N/c1ccc(O)c(C(=O)O)c1
Activity (Mus musculus [2]): inactive | Activity (Mus musculus [5]): inactive | Activity (Mus musculus [6]): Non-toxic | Activity (Mus musculus [8]): inactive
